Test results taken from the NIST ThermoML archive (doi:10.1016/j.jct.2016.02.006).
Numbers after ± are expanded uncertainties.

Assay: Molar enthalpy of transition or fusion
Details: Crystal; DSC

Compound	Molar enthalpy of transition or fusion
C=C(C)[C@@H]1CC[C@]2(CO)CC[C@]3(C)[C@H](CC[C@@H]4[C@@]5(C)CC[C@H](O)C(C)(C)[C@@H]5CC[C@]43C)[C@@H]12 [betulin]	55.2 ± 1.5 kJ/mol

Assay: refractive index (Na D-line) (dimensionless)
Details: 293.15 K; 101.33 kPa; Liquid; Standard Abbe refractometry

Compound	refractive index
NCCO [2-aminoethan-1-ol]	1.4542 ± 0.0004
O=CN1CCOCC1 [N-formylmorpholine]	1.4849 ± 0.0004
CN1CCCC1=O [N-methylpyrrolidone]	1.469 ± 0.0004
CC#N [acetonitrile]	1.3439 ± 0.0004
CCC(C)O (stereo not given) [butan-2-ol]	1.3983 ± 0.0004
CN(C)C=O [dimethylformamide]	1.4304 ± 0.0004
CCCCCCCCCCCC [dodecane]	1.4218 ± 0.0004
CCCCCCCCCCCCCCCC [hexadecane]	1.4346 ± 0.0004
CCCCCCCCCO [nonan-1-ol]	1.4334 ± 0.0004
CCCCCCCCO [octan-1-ol]	1.4291 ± 0.0004
CCCCCCCC [octane]	1.3978 ± 0.0004
CCCCCO [pentan-1-ol]	1.4098 ± 0.0004
O [water]	1.3329 ± 0.0004

Assay: not given
Details: Crystal; DTA

Compound	Normal melting temperature
C=C(C)[C@@H]1CC[C@]2(CO)CC[C@]3(C)[C@H](CC[C@@H]4[C@@]5(C)CC[C@H](O)C(C)(C)[C@@H]5CC[C@]43C)[C@@H]12 [betulin]	255.0 ± 0.4 °C
